Assay results published in publication PMC11022729 (Advanced Science, 2024).

Tests used:
human Slack = target: T1, human Slack (Homo sapiens, UniProt Q5JUK3); test: Whole-cell patch-clamp recordings in HEK-Slack cells; format: cell-based; conditions: 25 µM
T1 construct: host or cells: HEK293
T1 sequence (Q5JUK3 1-1230): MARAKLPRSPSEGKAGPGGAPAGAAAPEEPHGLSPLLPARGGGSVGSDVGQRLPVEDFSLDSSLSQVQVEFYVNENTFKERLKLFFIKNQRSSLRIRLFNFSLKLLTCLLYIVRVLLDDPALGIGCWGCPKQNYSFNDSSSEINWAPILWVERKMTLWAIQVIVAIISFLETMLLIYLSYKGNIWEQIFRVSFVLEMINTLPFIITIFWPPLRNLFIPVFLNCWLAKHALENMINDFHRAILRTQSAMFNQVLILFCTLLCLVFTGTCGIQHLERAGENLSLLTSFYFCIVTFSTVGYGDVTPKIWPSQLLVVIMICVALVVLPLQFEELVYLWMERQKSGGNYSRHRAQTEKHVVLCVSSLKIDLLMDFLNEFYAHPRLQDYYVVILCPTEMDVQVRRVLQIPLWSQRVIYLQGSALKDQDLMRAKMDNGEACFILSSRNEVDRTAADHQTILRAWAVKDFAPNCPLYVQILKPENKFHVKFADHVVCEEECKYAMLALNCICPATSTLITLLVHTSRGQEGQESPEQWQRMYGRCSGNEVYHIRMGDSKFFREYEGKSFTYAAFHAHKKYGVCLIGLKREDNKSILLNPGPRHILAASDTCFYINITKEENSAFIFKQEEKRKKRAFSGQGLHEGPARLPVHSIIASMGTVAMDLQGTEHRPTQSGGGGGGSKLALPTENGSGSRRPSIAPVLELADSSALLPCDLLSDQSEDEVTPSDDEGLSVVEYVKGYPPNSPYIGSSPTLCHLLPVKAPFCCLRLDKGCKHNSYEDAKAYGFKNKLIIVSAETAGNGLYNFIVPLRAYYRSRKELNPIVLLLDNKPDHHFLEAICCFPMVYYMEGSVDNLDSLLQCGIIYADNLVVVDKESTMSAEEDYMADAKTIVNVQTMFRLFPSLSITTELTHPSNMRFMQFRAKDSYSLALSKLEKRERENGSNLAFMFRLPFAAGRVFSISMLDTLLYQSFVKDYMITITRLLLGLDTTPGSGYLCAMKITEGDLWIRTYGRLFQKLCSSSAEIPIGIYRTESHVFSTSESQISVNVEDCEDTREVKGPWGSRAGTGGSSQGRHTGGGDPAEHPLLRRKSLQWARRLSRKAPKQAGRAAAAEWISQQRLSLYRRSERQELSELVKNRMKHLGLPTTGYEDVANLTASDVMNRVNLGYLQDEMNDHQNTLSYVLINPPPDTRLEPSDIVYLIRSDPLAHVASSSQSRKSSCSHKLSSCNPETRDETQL
Protocol: Next, we verified Slack activation by the new compounds using whole‐cell patch‐clamp recordings in HEK‐Slack cells. […] At a holding potential of −70 mV, a series of 500 ms‐long test pulses ranging from −120 to +120 mV in intervals of 20 mV were applied.^[ [16] ^]
HEK‐Slack cells were plated onto poly‐D‐lysine‐coated (100 µg mL^−1, Sigma–Aldrich) coverslips 1 day before experiments and cultured in DMEM containing 10% FBS and 1% penicillin/streptomycin in 5% CO2 at 37 °C. Whole‐cell voltage‐clamp recordings were acquired using an EPC 9 amplifier combined with Patchmaster software (HEKA Electronics, Lambrecht/Pfalz, Germany). Currents were sampled at 20 kHz and filtered at 5 kHz. Data analysis was performed using the Fitmaster software (HEKA Electronics). Membrane potential was held at −70 mV and outward K^+ current (IK) was evoked by depolarizing steps (500 ms duration) ranging from −120 to +120 mV in increments of 20 mV. The pipette solution contained 140 mM KCl, 2 mM MgCl2, 5 mM EGTA, and 10 mM HEPES and was adjusted to pH 7.4 with KOH. The extracellular solution contained 140 mM NaCl, 5 mM KCl, 2 mM CaCl2, 2 mM MgCl2, and 10 mM HEPES and was adjusted to pH 7.4 with NaOH. […] The fold‐increase values in the patch‐clamp experiments were determined by calculating […]. […]

mice [1] = test: SLIGRL-induced itch behavior; format: in vivo, mouse; conditions: 10 mg kg−1 i.p.
Source text: Chloroquine‐induced scratching in mice is driven by MrgprA3 activation in the NP2 population of sensory neurons.^[ [10], [29] ^] To further explore the antipruritic efficacy of compound 6 in histamine‐independent itch, we assessed the behavioral response after s.c. injection of the peptide Ser‐Leu‐Ile‐Gly‐Arg‐Leu (SLIGRL) that evokes scratching by activation of MrgprC11,^[ [30] ^] which is expressed in the NP2 and NP3 population.^[ [10] ^] […] Moreover, compound 6 ameliorated histamine‐independent itch evoked by s.c. injection of β‐alanine that activates MrgprD^[ [31] ^] in the NP1 population of sensory neurons^[ [10] ^] (Figure 3F). In contrast, scratching induced by subcutaneous histamine was not affected by compound 6 (Figure 3G). The lack of an effect on histamine‐evoked scratching was supported by the low affinity of compound 6 for histamine H1 receptors, which was determined using a [^3H]‐pyrilamine competition binding assay in vitro (Table S3, Supporting Information). […] We also investigated the efficacy of compound 6 after peroral (p.o.) delivery.
Three to four days before the day of the experiment, the fur on the dorsolateral aspect of the neck was shaved under brief isoflurane anesthesia. […] Number of scratching bouts directed toward the nape of the neck was assessed over 30 min by videotaping. […]

mice [2] = test: Hargreaves test; format: in vivo; conditions: 10 mg kg−1 i.p., hindpaws, vs vehicle
Protocol: An infrared heat source (intensity set to 25) was applied to the plantar surface of the hind paw, and the time until the animal elicited a withdrawal response was determined. Each hind paw was measured 4–5 times with a minimum interval of 20 s between measurements, and the mean value was calculated. Measurements that reached the cutoff time (20 s) were excluded.

Structure (SMILES): O=C(O)COCCN1CCN(C2=Nc3ccccc3Oc3ccc(Cl)cc32)CC1 [Compound 6]
- increase in current densities (human Slack; 10 mM pipette Na+): more pronounced
- current densities compared to baseline (human Slack; Na+-free pipette solution): increased the current densities compared to baseline
- SLIGRL-induced scratching behavior (mice [1]): significantly inhibited
- thermal sensitivity (Hargreaves test) (mice [2]): Neither mechanical nor thermal sensitivity was altered
